Results on three compounds are retold here after patent EP0387830A2, “The anthracycline substances, microorganisms producing the same and a process for preparing the substances” (YAMANOUCHI PHARMACEUTICAL CO. LTD., priority 1989, dated 1990).

Converted amounts (≈) assume the structure as drawn.

One data set deals with P 388. The data set can be described thus: Cytotoxicity on tumor cells in vitro (trypan blue exclusion, cell growth inhibition). The settings on record: tartrates dissolved in saline, 1 x 10⁵ cells/mℓ, 37 °C for 3 days, RPMI-1640 + 5 % fetus calf serum + 5 µM 2-hydroxyethyldisulfide; for IC50: Mus musculus, P388, 72 h, read-out: IC₅₀ P388. The format is cell-based. The protocol: (§1) To each 1 mℓ of L 1210* and P 388** culture medium in a concentration of 1 x 10⁵ cells/mℓ, 4 µℓ of each solution of the tartrates of the anthracycline compounds according to the present invention which was dissolved in saline in different concentrations was added respectively and incubated at 37 °C for 3 days in a CO₂ incubator. Then, numbers of surviving cells were counted by trypan blue exclusion. The cytotoxic activity was determined by calculating the cell growth inhibitory ratio of the numbers of surviving cells to numbers of cells of a control to which no compound was added in the different concentrations and by plotting them on a graph. Note : Medium used: * : RPMI-1640 + 10 % new born calf serum **: RPMI-1640 + 5 % fetus calf serum + 5 µM 2-hydroxyethyldisulfide

Data set [1] deals with P388 adriamycin resistant cell. The data set is described as above. The format is cell-based. The note with it: Mus musculus, P388, 72 h, tartrates dissolved in saline; 37 °C for 3 days; read-out: IC₅₀ P388 adriamycin resistant cell. The method, then: as §1
The nature of data set [2]: Solubility in solvents (physicochemical properties).
A further data set relates to P-388 tumor cells. Kind of data set: Antitumor activity to P388 on animal (prolongation of life). The note with it: for Median survival days: BDFI/SLC male mice, control 13.0; for T/C: ratio of median survival days to control; for Survival rate (after 22 days): survivors - animals in group.
In the next data set the test system is L 1210. Kind of data set: Cytotoxicity on tumor cells in vitro (trypan blue exclusion, cell growth inhibition). The format is cell-based. The settings on record: tartrates dissolved in saline, 1 x 10⁵ cells/mℓ, 37 °C for 3 days, RPMI-1640 + 10 % new born calf serum. The method, then: as §1

Regarding `COc1cccc2c1C(=O)c1c(cc3c(c1O)C(OC1OC(C)C(OC)C(O)C1OC)CC(C)(OC(C)=O)C3OC1OC(C)C(N(C)C)C(C)(O)C1O)C2=O` (stereo not drawn) [YL-01641P-C₁], the IC50 in the data set on P 388 came to 0.18 µg/mL; in data set [1], 0.33 µg/mL (≈ 0.426 µM). The Solubility in solvents entry was “insoluble” in data set [2] (in hexane); “soluble” in data set [2] (in methanol, ethanol, acetone, ethylacetate, benzene, toluene and chloroform); “difficult to be dissolved” in data set [2] (in water).

Take `CO[C@@]12[C@H](COC(N)=O)C3=C(C(=O)C(C)=C(N)C3=O)N1C[C@@H]1N[C@@H]12` [mitomycin C]: in the data set on P-388 tumor cells (0.50 × 5 mg/kg), the Median survival days was determined as 22.0 days, the T/C (usually the ratio of treated to control) is 169% and the “Survival rate (after 22 days)” value is listed as 2 - 8. Also, in the data set with P-388 tumor cells (1.0 × 5 mg/kg), the Median survival days is above 22.0 days, the T/C is above 169% and the “Survival rate (after 22 days)” value is listed as 8 - 8.

For the compound `COc1cccc2c1C(=O)c1c(O)c3c(c(O)c1C2=O)C[C@@](O)(C(=O)CO)C[C@@H]3O[C@H]1C[C@H](N)[C@H](O)[C@H](C)O1` [adriamycin], the IC50 with P 388 stood at 0.03 µg/mL; in the data set with L 1210 (Mus musculus, L1210, 72 h, read-out: IC₅₀ L1210), 0.087 µg/mL. Also, in the data set with P 388, the “IC₅₀ P388” value was found to be 0.023 µg/mL. The “IC₅₀ L1210” value with L 1210 stood at 0.090 µg/mL.
